Earlier results, collected in patent US20230056788A1, “METHODS AND COMPOSITIONS FOR THE INHIBITION OF HEPATITIS B AND HEPATITIS D VIRUS INFECTIONS” (priority 2020, published 2023).
In the oligonucleotide strings, read from the 5' end, every base follows the letter of its sugar. An asterisk marks phosphorothioate; unmarked linkages are phosphodiester. Other units and linkages are bracketed, terminal groups are in braces. A string of capitals states the bases alone. [5mC] = 5-methylcytosine; m = 2'-O-methyl

How the values were obtained:
[1] = test system: HBV
[2] = test system: HBV; settings: HBeAg positive and negative chronic infection and HBV/HDV co-infection

Row | Substance | antiviral activity [1] | activity against infections with multiple HBV genotypes [2]
1 | (2′OMeA, 2′OMe-5-MeC)20 (mAm[5mC]mAm[5mC]mAm[5mC]mAm[5mC]mAm[5mC]mAm[5mC]mAm[5mC]mAm[5mC]mAm[5mC]mAm[5mC]mAm[5mC]mAm[5mC]mAm[5mC]mAm[5mC]mAm[5mC]mAm[5mC]mAm[5mC]mAm[5mC]mAm[5mC]mAm[5mC]; further chemistry not fully specified) [REP 2147, non phosphorothioated (phosphodiester) counterpart of REP 2139] | inactive | –
2 | (2′OMeA, 2′OMe-5-MeC)10 (mA*m[5mC]*mA*m[5mC]*mA*m[5mC]*mA*m[5mC]*mA*m[5mC]*mA*m[5mC]*mA*m[5mC]*mA*m[5mC]*mA*m[5mC]*mA*m[5mC]; further chemistry not fully specified) [REP 2179, phosphorothioate 20mer counterpart of REP 2139] | (hydrophobic, inactive | –
3 | (2′OMeA, 2′OMe-5-MeC)20 (mA*m[5mC]*mA*m[5mC]*mA*m[5mC]*mA*m[5mC]*mA*m[5mC]*mA*m[5mC]*mA*m[5mC]*mA*m[5mC]*mA*m[5mC]*mA*m[5mC]*mA*m[5mC]*mA*m[5mC]*mA*m[5mC]*mA*m[5mC]*mA*m[5mC]*mA*m[5mC]*mA*m[5mC]*mA*m[5mC]*mA*m[5mC]*mA*m[5mC]; further chemistry not fully specified) [REP 2139] | – | potently active
